Experimental data taken from patent publication US11471414B2, “Compositions and methods for the treatment and prophylaxis of surgical site infections” (Polypid Ltd., priority 2014, dated 2022).

Test system: Staphylococcus aureus (ATCC 29213) preformed biofilm
Experiment: MBEC Physiology and Genetics Assay, eradication of an established biofilm
Type: cell-based
Procedure: The effectiveness of tri-calcium phosphate granules coated with a matrix composition according to embodiments of the invention in eradicating established biofilm was measured using the MBEC™ (Minimum Biofilm Eradication Concentration) Physiology and Genetics Assay.
MBEC™ Test Method Overview: MBEC™ test method specifies the operational parameters required to grow and treat different bacterial biofilms in a high throughput screening assay. The assay device consists of a plastic lid with ninety-six (96) pegs and a corresponding receiver plate with ninety-six (96) individual wells that have a maximum 200 μL working volume. Biofilm is established on the pegs in a batch culture based model (i.e., no flow of nutrients into or out of an individual well) with gentle mixing. The established biofilm is transferred to a new receiver plate for disinfectant efficacy testing.
Test Organisms: Staphylococcus aureus (an osteomyelitis-related strains); source: ATCC
29213; Dilution/Challenge Media: 1,000×TSB+10% human serum 24 hrs; Growth Media/agar: Tryptic Soy Broth/Tryptic Soy agar for 24 hrs Aerobic cond.
TEST METHOD overview: The experimental process for high-throughput antimicrobial susceptibility testing using the hydroxyapatite coated MBEC™ P&G assay. This standard protocol was broken into a series of small steps, each of which is detailed in the sections below.
Using a cryogenic stock (at −70° C.), a first sub-culture of Staphylococcus aureus was streaked out on OSA (organism specific agar). The plates were incubated at appropriate growth conditions for 20±2.0 hours and further stored at 4° C.
A second sub-culture taken from the first sub-culture was streaked out on OSA. The plates were incubated at appropriate growth conditions for 20±2.0 hours. An isolated colony from the second sub-culture was aseptically removed from the OSA plate and inoculated into 50 mL of sterile bacterial liquid growth broth, followed by incubation appropriate growth conditions for 20±2.0 hours (at 150 rpm).
The inoculum was adjusted to an approximate cell density of 10^6 CFU/mL.
150 μL of the remaining diluted organism were placed in each of the corresponding wells of an MBEC™ P&G device except the sterility controls (Table 5). The device was placed on an orbital shaker (110 RPM) in a humidified incubator at 37±1° C.
The biofilm formed on the lid of the MBEC device was rinsed by dipping the lid into saline (˜30 seconds) to remove planktonic cells. The lid was then put on top of the challenge plate and incubated on a rotary shaker at 110 rpm at 35±2° C. for 24±2 hours.
After incubation (specified above), planktonic cells were rinsed off the biofilm by dipping the lid into saline (˜20-30 seconds). The lid was then transferred to a neutralizer/recovery plate and put in a sonicator (˜30 minutes) to dislodge surviving biofilm.
Following sonication, 100 μL from each well of the MBEC™ plate, were put into the first 12 empty wells of the first row of a 96 well-micro titer plate and were further diluted by 10 fold down each of the 8 rows (10^0-10^7 dilution). 5 μL from each well were then used for spotting prepared OSA plates. The agar plates were incubated at 37±1° C. and counted after approximately 24-48 hours of incubation. The arithmetic mean of the number of colonies counted on the plates was calculated.
100 μL of the sterile neutralizer was added to each well of the recovery plate to top up the volume back to 200 μL. The refilled plate is incubated at 35±2° C. for 24±2 hours.
Comparator MBEC results were determined following the 24±2 hour incubation using the plate reader.
The log density for one peg was calculated as follows: LOG10(CFU/peg)=LOG10[(X/B)(D)] where: X=mean CFU; B=volume plated (0.02 mL) and D=dilution.
The overall biofilm accumulation was determined by calculating the mean of the log densities calculated.
LOG10 reduction for each dilution was calculated as follows: LOG10 Reduction=Mean LOG10 Growth Control−Mean LOG10 Test Sample.

Gentamicin
Log Reduction (Log R) vs. GC (growth control) (D 0.5): 1.11
Average Log10 CFU/peg recoveries (D 0.5 (μg)): 3.48 Log10 CFU/peg
Log Reduction (Log R) vs. GC (growth control) (D 1.0): 1.38
Average Log10 CFU/peg recoveries (D 1.0 (μg)): 3.21 Log10 CFU/peg
Log Reduction (Log R) vs. GC (growth control) (D 2.0): 2.90
Average Log10 CFU/peg recoveries (D 2.0 (μg)): 1.69 Log10 CFU/peg
Log Reduction (Log R) vs. GC (growth control) (D 4.0): 3.29
Average Log10 CFU/peg recoveries (D 4.0 (μg)): 1.31 Log10 CFU/peg
Log Reduction (Log R) vs. GC (growth control) (D 8.0): 4.59
Average Log10 CFU/peg recoveries (D 8.0 (μg)): 0.00 Log10 CFU/peg
Log Reduction (Log R) vs. GC (growth control) (D 16): 4.59
Average Log10 CFU/peg recoveries (D 16 (μg)): 0.00 Log10 CFU/peg
Log Reduction (Log R) vs. GC (growth control) (D 32): 4.59
Average Log10 CFU/peg recoveries (D 32 (μg)): 0.00 Log10 CFU/peg
